Data: US20250255961A1, “METHODS TO STIMULATE IMMUNE RESPONSES TO MUTANT RAS USING NUCLEATED CELLS” (STEMCELL TECHNOLOGIES CANADA INC., priority 2020, published 2025)
“Also recorded” adds a separate entry of the source.

Key:
[1] = test system: K-Ras G12V responder T cells; assay: IFN-γ ELISPOT: peptide-loaded HLA-A*11+ human PBMCs co-cultured with K-Ras G12V responder T cells; format: cell-based; details: for IFN-γ expressing K-Ras-G12V responder T cells upon co-culture: HLA-A*11+ human PBMCs SQZ-loaded with 100 μM SLP; for IFN-γ secretion by K-Ras-G12V responder T cells upon co-culture: Example 4, FIG. 4, HLA-A*11+ human PBMCs (donor 296) SQZ-loaded with 100 μM SLP
Procedure: (§1) Human PBMCs from HLA-A*11^+ donor (donor 296) were prepared at a density of 10×10^6/mL, SQZ processed at room temperature through a constriction of 4.5 μm width, 10 μm length and 70 μm depth at 60 psi with 100 μM of the respective K-Ras synthetic long peptide (G12V^1-16, G12V^2-19) or with vehicle control (DMSO) in RPMI medium. Following SQZ-processing, the SQZ-loaded PMBCs were centrifuged, and the supernatant was discarded. The cells were subsequently washed once in R10 medium (RPMI+10% FCS+1% Pen/Strep), then washed twice in CTL medium (supplemented with 1% glutamine), before resuspension in fresh CTL medium (supplemented with 1% glutamine).
(§2) 2×10^5 SQZ-loaded PBMCs were then placed in co-culture with 5×10^4 K-Ras G12V responder T cells (generated in transgenic mice) in an IFN-γ ELISPOT plate. As a positive control, 10 μM K-Ras G12V^7-16 peptide containing the minimal epitope was added directly to untreated PBMCs and responder cells in the ELISPOT plate (peptide spike). The plate was incubated overnight at 37° C. and then developed/quantified according to manufacturer's instructions.
as §1, with “donor” for “donor (donor 296)”, “constriction with” for “constriction of”, “peptide (K-Ras G12V^3-17, K-Ras G12V^3-42)” for “peptide (G12V^1-16, G12V^2-19)”, “medium. An irrelevant synthetic long peptide (HPV-E7.6) was used as a negative control.” for “medium.”
as §1, with “donor” for “donor (donor 296)”, “10× 10^6/mL,” for “10×10^6/mL,”, “(wild type K-Ras^1-16, G12V^1-16, wild type K-Ras^2-22, or G12V^2-22)” for “(G12V^1-16, G12V^2-19)”
as §1, with “donor” for “donor (donor 296)”, “of a single” for “of the respective”, “peptide (G12V^1-16” for “peptide (G12V^1-16, G12V^2-19)”, “or G12V^2-19), or a combination of two K-Ras synthetic long peptides which are each at 100 μM (G12V^1-16 plus G12D^1-16 or G12V^2-19 plus G12D^1-16) or” for “or with”, “glutamine). […]” for “glutamine).”

[2] = test system: K-Ras G12V responder T cells; assay: as above; format: cell-based
[3] = test system: K-Ras G12D responder T cells; assay: IFN-γ ELISPOT: peptide-loaded HLA-A*11+ human PBMCs co-cultured with K-Ras G12D responder T cells; format: cell-based, transgenic mice; details: for IFN-γ expressing by K-Ras-G12D responder T cells upon co-culture: Example 1, FIG. 1, vehicle control DMSO, overnight 37° C.; for IFN-γ expressing responder T cells upon co-culture: PBMCs incubated with 100 μM SLP at room temperature without SQZ (Endo-G12D); for IFN-γ secretion by K-Ras-G12D responder T cells upon co-culture: Example 3, FIG. 3, HLA-A*11+ human PBMCs (donor 339) SQZ-loaded with 100 μM SLP
Procedure: as §1, with “donor” for “donor (donor 296)”, “and SQZ-processed” for “SQZ processed”, “K-Ras G12D” for “K-Ras”, “(either G12D^1-16, G12D^2-19, G12D^2-22, G12D^2-29)” for “(G12V^1-16, G12V^2-19)”, “PBMCs” for “PMBCs”
as §2, with “G12D” for “G12V”, “G12D^7-16” for “G12V^7-16”
as §1, with “donor” for “donor (donor 296)”, “10×10^6/mL, and” for “10×10^6/mL,”, “(either wild type K-Ras^1-16 or K-Ras-G12D^1-16)” for “(G12V^1-16, G12V^2-19)”, “glutamine). […]” for “glutamine).”
as §1, with “339)” for “296)”, “(either wild type K-Ras^2-22 or K-Ras G12D^2-22)” for “(G12V^1-16, G12V^2-19)”, “glutamine). […]” for “glutamine).”
2×10^5 of either the SQZ-loaded PBMCs (SQZ-G12D) or SLP-incubated PBMCs (Endo-G12D), or an equal volume of the fluid phase solution (FF-G12D) were then placed in co-culture with 5×10^4 K-Ras G12D responder T cells (generated in transgenic mice) in an IFN—Y ELISPOT plate. As a positive control, 10 μM K-Ras G12D^7-16 peptide containing the minimal epitope was added directly to untreated PBMCs and responder cells in the ELISPOT plate (spike). 10 μM wild type K-Ras^7-16 peptide was added to PBMCs and responder as another […] (spike). The plate was incubated overnight at 37° C. and then developed/quantified according to manufacturer's instructions.

[4] = HLA-A*11+ human PBMCs SQZ-loaded with 100 μM SLP
[5] = Example 2, FIG. 2, HLA-A*11+ human PBMCs SQZ-loaded with 100 μM SLP, compared to vehicle control
[6] = Example 6, FIG. 6, compared to vehicle control

Substance: EYKLVVVGAVGVGKS [G12V^3-17, K-Ras G12V synthetic long peptide, residues 3-17]
- IFN-γ expressing K-Ras-G12V responder T cells upon co-culture ([1]; Example 5, FIG. 5): significant increases
- IFN-γ expressing K-Ras-G12V responder T cells upon co-culture ([2]; Example 5, FIG. 5, HLA-A*11+ human PBMCs SQZ-loaded with 100 μM SLP, listed as K-Ras-G12V^3-17): increased amount

Substance: EYKLVVVGAVGVGKSALTIQLIQNHFVDEYDPTIEDSYRK [G12V^3-42, K-Ras G12V synthetic long peptide, residues 3-42]
- IFN-γ expressing K-Ras-G12V responder T cells upon co-culture ([1]; Example 5, FIG. 5): significant increases
- IFN-γ expressing K-Ras-G12V responder T cells upon co-culture ([2]; Example 5, FIG. 5, HLA-A*11+ human PBMCs SQZ-loaded with 100 μM SLP, listed as K-Ras-G12V^3-42): increased amount

Substance: MTEYKLVVVGADGVGK [G12D^1-16, K-Ras G12D synthetic long peptide, residues 1-16]
- IFN-γ expressing by K-Ras-G12D responder T cells upon co-culture [3, 4]: increased amount; also recorded: significant increases
- IFN-γ expressing K-Ras-G12D responder T cells upon co-culture [3, 5]: significant increases
- IFN-γ expressing K-Ras-G12D responder T cells upon co-culture ([3]; Example 2, FIG. 2, HLA-A*11+ human PBMCs SQZ-loaded with 100 μM SLP, compared to vehicle control, listed as K-Ras-G12D^1-16): increased amount
- IFN-γ expressing K-Ras-G12D responder T cells upon co-culture ([3]; Example 7, FIG. 7, HLA-A*11+ human PBMCs SQZ-loaded with one SLP or a combination of two SLPs, each at 100 μM): significant increases
- IFN-γ expressing K-Ras G12D responder T cells upon co-culture ([3]; Example 10, FIG. 10, HLA-A*11+ human PBMCs SQZ-loaded with 100 μM SLP (SQZ-G12D), listed as K-Ras-G12D^1-16): significant increases; also recorded: increased amount
- IFN-γ expressing responder T cells upon co-culture ([3]; Example 10): did not result in increase

Substance: MTEYKLVVVGAVGVGK [G12V^1-16, K-Ras G12V synthetic long peptide, residues 1-16]
- IFN-γ secretion by K-Ras-G12V responder T cells upon co-culture [1]: significantly increased
- IFN-γ secretion by K-Ras-G12V responder T cells upon co-culture ([1]; listed as K-Ras-G12V^1-16): increased amount
- IFN-γ expressing K-Ras-G12V responder T cells upon co-culture [1, 6]: significant increases
- IFN-γ expressing K-Ras-G12V responder T cells upon co-culture ([1]; Example 6, FIG. 6, compared to vehicle control, listed as K-Ras-G12V^1-16): increased amount
- IFN-γ expressing K-Ras-G12V responder T cells upon co-culture ([2]; Example 8, FIG. 8, HLA-A*11+ human PBMCs SQZ-loaded with one SLP or a combination of two SLPs, each at 100 μM): significant increases

Substance: TEYKLVVVGADGVGKSAL [G12D^2-19, K-Ras G12D synthetic long peptide, residues 2-19]
- IFN-γ expressing by K-Ras-G12D responder T cells upon co-culture [3, 4]: increased amount; also recorded: significant increases

Substance: TEYKLVVVGADGVGKSALTIQ [G12D^2-22, K-Ras G12D synthetic long peptide, residues 2-22]
- IFN-γ expressing by K-Ras-G12D responder T cells upon co-culture [3, 4]: increased amount; also recorded: significant increases
- IFN-γ secretion by K-Ras-G12D responder T cells upon co-culture ([3]; compared to vehicle control): significantly increased
- IFN-γ secretion by K-Ras-G12D responder T cells upon co-culture ([3]; compared to vehicle control, listed as K-Ras-G12D^2-22): increased amount

Substance: TEYKLVVVGADGVGKSALTIQLIQNHFV [G12D^2-29, K-Ras G12D synthetic long peptide, residues 2-29]
- IFN-γ expressing by K-Ras-G12D responder T cells upon co-culture [3, 4]: increased amount; also recorded: significant increases
- IFN-γ expressing K-Ras G12D responder T cells upon co-culture ([3]; Example 10, FIG. 10, HLA-A*11+ human PBMCs SQZ-loaded with 100 μM SLP (SQZ-G12D), listed as K-Ras-G12D^2-29): significant increases; also recorded: increased amount
- IFN-γ expressing responder T cells upon co-culture ([3]; Example 10): did not result in increase

Substance: VVVGADGVGK [K-Ras G12D^7-16, positive control peptide spike, reference compound]
- IFN-γ expressing K-Ras G12D responder T cells upon co-culture ([3]; Example 10, 10 μM peptide added directly to untreated PBMCs and responder cells (peptide spike, positive control)): significant increases

Substance: wild type K-Ras^1-16: wild type K-Ras synthetic long peptide, residues 1-16; mutation-specificity comparator (MTEYKLVVVGAGGVGK; UniProt P01116 1-16, looked up, fragment) [reference compound]
- IFN-γ expressing K-Ras-G12V responder T cells upon co-culture [1, 6]: did not elicit increases
- IFN-γ expressing K-Ras-G12D responder T cells upon co-culture [3, 5]: did not elicit increases
